Laboratory results reported in PMC4279406, “Simultaneous targeting of PI3Kδ and a PI3Kδ-dependent MEK1/2-Erk1/2 pathway for therapy in pediatric B-cell acute lymphoblastic leukemia” (Oncotarget, 2014).
Like-named read-outs stand apart in the source and are kept apart here.

Assays:
Assay in all cases: Akt phosphorylation in isogenic Rh30-Myr-p110 cells (Western blot)
Type in all cases: cell-based
Settings in all cases: Homo sapiens, serum-free 12 h, compound 1 h, band intensity, mean of three experiments
Rh30-Myr-p110α cells = test system: Rh30-Myr-p110α cells
Description: (§1) To assess the selectivity of X-370 in the context of an isogenic cellular background, we generated a panel of Rh30 human rhabdomyosarcoma cell lines each of which stably expresses a single myristoylated (Myr)-epitope tagged p110 human class I PI3K catalytic subunit, termed as Rh30-Myr-p110α, Rh30-Myr-p110β, Rh30-Myr-p110γ or Rh30-Myr-p110δ. In these cells, endogenous PI3K is not activated under serum-free culture conditions, whereas the ectopically expressed p110 isoforms are membrane-anchored and constitutively active due to myristoylation at N-terminal. Utilizing this cell panel, isoform-specific PI3K activity can be determined for any given inhibitor[25]. These cells were treated with X-370 and phosphorylated Akt was detected as the readout of PI3K activity. X-370 inhibited phosphorylation of Akt at both Thr308 and Ser473 in a dose-dependent manner in four tested cell lines (Figure 2A). […] Similar property was also observed in CAL-101 (Figure S2).
(§2) Cell lysates were probed with indicated antibodies. The IC50 values were calculated based on relative band intensity measured with ImageQuant™ TL (GE Healthcare Life Sciences, Piscataway, NJ) (B). Data shown are mean values from three independent experiments. (C, D, E, F) X-370 blocked stimuli-triggered PI3Kδ activation. MEF cells and THP-1 were starved in serum-free medium for 12 h or 4 h respectively and X-370 were added for an additional 1 h treatment following stimulation of IGF-1 at 100 ng/ml for MEF cells (C), LPA at 10 μM for MEF cells (D), MCP-1 at 100ng/ml for THP-1 (E) and M-CSF at 50 ng/ml for THP-1 (F). Similar results were derived from 3 independent experiments. TEXT PRINTED IN THE PICTURE: (B) X-370: IC50 (μM) in Rh30-Myr-p110s, Akt pT308, PI3Kα: 0.68; IC50 (μM) in Rh30-Myr-p110s, Akt pT308, PI3Kβ: 0.4; IC50 (μM) in Rh30-Myr-p110s, Akt pT308, PI3Kγ: 0.46; IC50 (μM) in Rh30-Myr-p110s, Akt pT308, PI3Kδ: 0.032; IC50 (μM) in Rh30-Myr-p110s, Akt pS473, PI3Kα: 0.53; IC50 (μM) in Rh30-Myr-p110s, Akt pS473, PI3Kβ: 0.29; IC50 (μM) in Rh30-Myr-p110s, Akt pS473, PI3Kγ: 0.23; IC50 (μM) in Rh30-Myr-p110s, Akt pS473, PI3Kδ: 0.02 DOUBTS OF THE COPYIST ABOUT THIS PICTURE: Panel B prints no substance label in the table itself; the label X-370 is taken from the other panels of the same picture, where it is the only substance printed. […]
(§3) Cells were treated as indicated conditions and then subjected to lysate to perform standard Western blot as described previously1. Briefly, whole-cell lysates and SDS-loading buffer diluted cell fractions were analyzed on SDS-PAGE gels. Transfer to nitrocellulose membranes, nonfat milk blocking, probing with indicated primary antibodies and the corresponding HRP-conjugated second antibodies.
(§4) Chemiluminescence were performed and captured using ImageQuant LAS 4000 (GE healthcare Life Sciences, Piscataway, NJ, USA) and band intensity was measure both with ImageQuant™ TL (GE Healthcare Life Sciences) 2. […]
(§5) (also on this page, place not known: PI3Kδ -dependent MEK1/2 - B -cell previously 1. whole -cell SDS -loading SDS -PAGE HRP -conjugated (G E A B Val828 Trp760 Thr750 Met752 Tyr813 affinity pocket specificity pocket hinge Glu826 CAL-101 X-370) […]
(§6) (1 picture or pasted object on this page, not shown here)

Rh30-Myr-p110γ cells = test system: Rh30-Myr-p110γ cells
Description: as §1, §2, §3, §4, §5, §6

Rh30-Myr-p110β cells = test system: Rh30-Myr-p110β cells
Description: as §1, §2, §3, §4, §5, §6

IC50 (Rh30-Myr-p110α cells; read-out: IC50 (μM) in Rh30-Myr-p110s, Akt pS473, PI3Kα): 0.53 µM | IC50 (Rh30-Myr-p110α cells; read-out: IC50 (μM) in Rh30-Myr-p110s, Akt pT308, PI3Kα): 0.68 µM | IC50 (Rh30-Myr-p110γ cells; read-out: IC50 (μM) in Rh30-Myr-p110s, Akt pS473, PI3Kγ): 0.23 µM | IC50 (Rh30-Myr-p110γ cells; read-out: IC50 (μM) in Rh30-Myr-p110s, Akt pT308, PI3Kγ): 0.46 µM | IC50 (Rh30-Myr-p110β cells; read-out: IC50 (μM) in Rh30-Myr-p110s, Akt pS473, PI3Kβ): 0.29 µM | IC50 (Rh30-Myr-p110β cells; read-out: IC50 (μM) in Rh30-Myr-p110s, Akt pT308, PI3Kβ): 0.4 µM
Structure (SMILES): O=C(N1CCCC1)N1CCC(n2cnc3c(-n4c(C(F)F)nc5ccccc54)nc(N4CCOCC4)nc32)CC1 [X-370]
